Drawing on PubChem BioAssay (NCI), this text covers GI50 and TGI for 11 molecules.

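Interpolation was linear, between the two tested concentrations surrounding the appropriate level; five concentrations were tested over 48 hours in 96-well plates. GI50: concentration for 50% inhibition of growth. Definition used: TGI = concentration required for complete inhibition of growth.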

Among the test systems are CAKI-1 renal; COLO 205 colon; HCT-116 colon; K-562 leukemia; MCF7 breast; OVCAR-3 ovarian; OVCAR-5 ovarian; PC-3 prostate; UO-31 renal; HL-60(TB) leukemia.
Holding throughout (test): NCI-60 cell line screen, 48 h

`O=C(/C=C/OC(=O)c1cccc(Cl)c1)c1ccc(Cl)cc1`: the GI50 was greater than 51500 nM in the assay on CAKI-1 renal; greater than 65000 nM with COLO 205 colon; 31.3 µM in the assay on HCT-116 colon; 34.5 µM with K-562 leukemia; 48.7 µM in the assay on MCF7 breast; 21.7 µM in the assay on OVCAR-3 ovarian. Besides, the GI50 in the assay on OVCAR-5 ovarian was greater than 100000 nM; with PC-3 prostate, 30.7 µM; with UO-31 renal it was greater than 100000 nM. For the same molecule, the TGI is greater than 100 µM in the assay with CAKI-1 renal; greater than 100 µM with COLO 205 colon; greater than 100 µM with HCT-116 colon; greater than 100 µM in the assay on K-562 leukemia; greater than 100 µM with MCF7 breast; greater than 74 µM in the assay with OVCAR-3 ovarian. Also, the TGI in the assay with OVCAR-5 ovarian was greater than 100 µM; in the assay on PC-3 prostate, greater than 95.9 µM; with UO-31 renal it was greater than 100 µM.

Turning to `CN(C)c1ccc2nc(CC(O)(C(F)(F)F)C(F)(F)F)ccc2c1`, the TGI in the assay on CAKI-1 renal, in the assay with COLO 205 colon, in the assay on HCT-116 colon, in the assay with K-562 leukemia, in the assay with MCF7 breast and in the assay with OVCAR-3 ovarian was greater than 10 µM throughout. Besides, the TGI with OVCAR-5 ovarian, in the assay with PC-3 prostate and in the assay on UO-31 renal was greater than 10 µM throughout.

Take `COc1cnc2c(c1)C(=O)c1c-2n(CCCN2CCNCC2)c(=O)c2cc([N+](=O)[O-])ccc12`: the GI50 was 202 nM in the assay on CAKI-1 renal; 61.7 nM with COLO 205 colon; 0.096 µM in the assay on HCT-116 colon; 113 nM with HL-60(TB) leukemia; 1.19 µM in the assay on OVCAR-3 ovarian; 1020 nM in the assay with OVCAR-5 ovarian. The GI50 in the assay on PC-3 prostate is 1.17 µM; in the assay on UO-31 renal it was 249 nM. In addition, the TGI in the assay on CAKI-1 renal was found to be 1.71 µM; in the assay on COLO 205 colon, 1.79 µM; in the assay on HCT-116 colon, 1.78 µM; with HL-60(TB) leukemia, 1.11 µM; in the assay on OVCAR-3 ovarian, 2.63 µM; in the assay on OVCAR-5 ovarian it was 2.58 µM. For the same molecule, the TGI in the assay on PC-3 prostate came to 2.56 µM; with UO-31 renal, 1.7 µM.

On to `O=C1C2C3C=CC(C2C(=O)N1CN1CCSCC1)C1C2C(=O)N(CN4CCSCC4)C(=O)C2C31` (stereo not drawn), for which the TGI in the assay on CAKI-1 renal is greater than 100 µM; with COLO 205 colon it was 97.8 µM; in the assay with HCT-116 colon, greater than 55.9 µM; with HL-60(TB) leukemia, 73 µM; in the assay on K-562 leukemia, greater than 100 µM; with OVCAR-3 ovarian it was greater than 100 µM. For the same molecule, the TGI in the assay with OVCAR-5 ovarian and with UO-31 renal was greater than 100 µM throughout. For the same molecule, the GI50 in the assay with MCF7 breast is 69.1 µM.

As for `O=C1NC(c2cccc(OCc3ccccc3)c2)Nc2ccccc21` (stereo not drawn), the TGI was greater than 32.8 µM in the assay with CAKI-1 renal; 2.64 µM with COLO 205 colon; 1.93 µM in the assay on HCT-116 colon; less than 0.0428 µM with HL-60(TB) leukemia; 35.6 µM in the assay on K-562 leukemia; 15.2 µM with MCF7 breast. Moreover, the TGI in the assay with OVCAR-3 ovarian was 0.558 µM; with OVCAR-5 ovarian, greater than 22.7 µM; with UO-31 renal, 55 µM.

Turning to `O=C(O)CCC(C(=O)O)N1C(=O)C2C3CCC(C3)C2C1=O` (stereo not drawn), the TGI in the assay on CAKI-1 renal, in the assay on COLO 205 colon, in the assay with HCT-116 colon, in the assay with K-562 leukemia, in the assay on MCF7 breast and in the assay on OVCAR-3 ovarian was greater than 100 µM each time. For the same molecule, the TGI in the assay on OVCAR-5 ovarian and in the assay with PC-3 prostate was greater than 100 µM in each case.

With `CC(C)C1N2CCCCC2[C@@H]2c3[nH]c4ccccc4c3CCN12` (stereo partly drawn), the TGI in the assay on CAKI-1 renal, in the assay on COLO 205 colon, in the assay on HCT-116 colon, in the assay with HL-60(TB) leukemia, in the assay on K-562 leukemia and with OVCAR-3 ovarian was greater than 100 µM in each case. Besides, the TGI in the assay with OVCAR-5 ovarian and in the assay on UO-31 renal was greater than 100 µM throughout.

`CCN=C(C#N)NCC`: the TGI in the assay on CAKI-1 renal, in the assay on COLO 205 colon, in the assay on HCT-116 colon, in the assay with HL-60(TB) leukemia, in the assay with K-562 leukemia and with OVCAR-3 ovarian was greater than 100 µM each time. For the same molecule, the TGI with OVCAR-5 ovarian and with UO-31 renal was greater than 100 µM throughout.

For `c1ccc2c(NCCCCCCNc3cccc4ccccc34)cccc2c1`, the TGI in the assay with CAKI-1 renal, in the assay with COLO 205 colon, in the assay with HCT-116 colon, in the assay with HL-60(TB) leukemia, in the assay with K-562 leukemia and in the assay with OVCAR-3 ovarian was greater than 100 µM each time. For the same molecule, the TGI in the assay on OVCAR-5 ovarian and in the assay on UO-31 renal was greater than 100 µM in each case.

For `COc1cc(/C=C2/C(=O)N(C(=O)OCc3ccccc3)C(Cc3cc(OC)c(OC)c(C)c3OC)C(=O)N2Cc2ccccc2)c(OC)c(C)c1OC` (stereo not drawn), the TGI in the assay with CAKI-1 renal, with COLO 205 colon, in the assay on HCT-116 colon, in the assay with HL-60(TB) leukemia, in the assay with K-562 leukemia and in the assay with OVCAR-3 ovarian was greater than 100 µM each time. Further, the TGI in the assay on OVCAR-5 ovarian and in the assay on UO-31 renal was greater than 100 µM in each case.

With `O=[N+]([O-])c1cc2c([N+](=O)[O-])cccc2o1`, the TGI in the assay with CAKI-1 renal is 5.77 µM; in the assay with COLO 205 colon, 16.5 µM; with HCT-116 colon it was greater than 100 µM; in the assay with MCF7 breast, 13.8 µM; in the assay with OVCAR-3 ovarian it was 21.8 µM; in the assay with PC-3 prostate it was 36.1 µM. The same molecule gave a TGI with UO-31 renal of 3.98 µM.
